PubChem BioAssay (NCI)
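Results reflect a 48-hour exposure of cells in 96-well plates to compound at five concentrations. Abbreviation: GI50, concentration required for 50% inhibition of growth. TGI: concentration producing complete growth inhibition.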

Assays:
Experiment in all cases: NCI tumour cell line growth inhibition, 48 h
COLO 205 colon = test system: COLO 205 colon
SW-620 colon = test system: SW-620 colon
IGROV1 ovarian = test system: IGROV1 ovarian
OVCAR-3 ovarian = test system: OVCAR-3 ovarian
NCI-H226 lung = test system: NCI-H226 lung
U251 CNS = test system: U251 CNS
EKVX NSCLC = test system: EKVX NSCLC
CAKI-1 renal = test system: CAKI-1 renal
HOP-62 NSCLC = test system: HOP-62 NSCLC
MOLT-4 leukemia = test system: MOLT-4 leukemia

SMILES	TGI (COLO 205 colon)	TGI (SW-620 colon)	TGI (IGROV1 ovarian)	TGI (OVCAR-3 ovarian)	TGI (NCI-H226 lung)	TGI (U251 CNS)	TGI (EKVX NSCLC)	TGI (CAKI-1 renal)	TGI (HOP-62 NSCLC)	TGI (MOLT-4 leukemia)	GI50 (COLO 205 colon)	GI50 (SW-620 colon)	GI50 (IGROV1 ovarian)	GI50 (OVCAR-3 ovarian)	GI50 (NCI-H226 lung)	GI50 (U251 CNS)	GI50 (EKVX NSCLC)	GI50 (CAKI-1 renal)	GI50 (HOP-62 NSCLC)	GI50 (MOLT-4 leukemia)
Nc1ncnc2c1ncn2C1CCC(CO)O1 (configuration not stated)	> 100 µM	> 100 µM	> 100 µM	> 100 µM	> 74.7 µM	> 100 µM	100 µM	> 100 µM	> 100 µM	> 100 µM										
CCN(CC)CCCC(Nc1c2ccc(Cl)cc2nc2ccc(OC)cc12)c1ccc(F)cc1 (configuration not stated)	4.53 µM	3.65 µM	9.06 µM	4.44 µM	47.5 µM	3.88 µM	8.48 µM	3.79 µM	6.87 µM	7.06 µM	2.05 µM	1.79 µM	3.15 µM	2.16 µM	20.9 µM	1.92 µM	2.08 µM	1.73 µM	2.54 µM	2.72 µM
Cc1cccc2c(N)c3cccc(C(=O)NCCN(C)C)c3nc12	0.229 µM		0.508 µM	0.929 µM	1.48 µM	0.604 µM	0.469 µM	1.08 µM	0.459 µM											
COc1c2c(cc3c(CCc4ccccc4)cc(=O)oc13)CCC(C)(C)O2	> 100 µM	> 100 µM	> 100 µM	> 100 µM	> 100 µM	> 100 µM	> 100 µM		> 100 µM	> 100 µM										
CC1=C[C@]2(CC(C)C3C(CC4(C)C5CCC6C(C)(C)C(=O)CC[C@@]67C[C@@]57CC[C@]34C)O2)OC1=O (some centres not stated)	> 100 µM	> 100 µM	> 100 µM		22 µM	> 100 µM	> 100 µM	62.2 µM		> 100 µM										
CCOP(=O)(OCC)C(Cc1ccc(OC)c(OC)c1)N=C(c1ccccc1)c1ccccc1 (configuration not stated)	38.1 µM	> 100 µM	> 100 µM	> 100 µM	> 100 µM	> 100 µM		> 100 µM												
CC(C)=CC(=O)OC1C2C(C)C(=O)OC2C(O)C(C)C2C=CC(=O)C21C (configuration not stated)	5.83 µM	5.29 µM	7.48 µM	6.92 µM	11.6 µM	8.3 µM	7.88 µM	7.71 µM	14.7 µM	9.71 µM										
CO/N=C1/c2sccc2[C@H](NC(=O)C(F)(F)F)[C@@H]1O	> 100 µM	> 100 µM	> 100 µM	> 100 µM	> 100 µM	> 100 µM	> 100 µM	> 100 µM	> 100 µM	> 100 µM										
